The values that follow come from US6462055B2, “Alpha-methylbenzyl-containing thiourea inhibitors of herpes viruses containing a phenylenediamine group” (Wyeth, priority 1998, dated 2002).

Each structure is given as a SMILES string. Values after ≈ are worked out from the molar mass of the structure shown.

The test system of one assay is HSV-1. Briefly: HSV Antiviral (ELISA) Assay in Vero cells. It counts as cell-based, herpes simplex virus type 1. Conditions: HSV-1, Vero cells; for IC50: Human alphaherpesvirus 1, read-out: IC50 (ug/ml) HSV. The procedure: Vero cells (ATCC #CCL-81) are plated on 96-well tissue culture plates at 3.5×10^4 cells per 100 μl tissue culture DMEM (Dulbeccos modified Eagle media) supplemented with 2% fetal bovine serum (FBS) in each well. After overnight incubation @ 37° C. (in 5% CO2) and 30 minutes prior to infection with HSV-1 (multiplicity of infection equal to 0.006), cells are either untreated, or treated with test compound (multiple concentrations) or reference standard drug control. After approximately 24 hours post-infection incubation @ 37° C. (in 5% CO2), cells are fixed for ELISA assay. The primary antibody is murine anti-HSV glycoprotein D monoclonal primary antibody and the secondary antibody is goat anti-mouse IgG linked to β-galactosidase. Thus the extent of viral replication is determined by assessing β-galactosidase activity by quantifying the generation of the 4-methyl umbelliferone fluorescent cleavage product after addition of the methyl umbelliferyl-β-D-galactoside (Sigma #M1633) substrate on a microfluorimeter (365 nm for excitation and 450 nm for emission). Antiviral activity (IC50) of the test compound is determined by comparing the flourescence obtained in absence of compound to that obtained in the presence of compound.
(In an ELISA, binding on a coated surface is turned into a signal by an enzyme label.)

For another assay, the system named is VZV strain Ellen. Briefly: VZV Antiviral (ELISA) Assay in human foreskin fibroblast cells. The assay is classed as cell-based, varicella-zoster virus. As to conditions: for IC50 / inhibition at 10 µg/mL: Human alphaherpesvirus 3, Fibroblast; for IC50: read-out: IC50 (ug/ml) VZV; for inhibition at 10 µg/mL: read-out: % inhibition 10 ug/ml VZV, 10 ug/ml. How it is done:
For the generation of stock VZV to be used in the assay, VZV strain Ellen (ATCC #VR-1367) is used to infect human foreskin fibroblast (HFF) cells at low multiplicity (less than 0.1) and incubated overnight at 37° C. in 5% CO2. After the overnight incubation, the mixture of uninfected and VZV-infected HFF infected cells are then harvested and added to each well of 96-well plates (3.5×10^4 cells in 100 μl DMEM supplemented with 2% FBS) which contain test compound or the reference standard drug control (in 100 μl DMEM supplemented with 2% FBS per well). These cells are incubated for three days at 37° C. in 5% CO2, then fixed for ELISA assay. The primary antibody is murine anti-VZV glycoprotein II monoclonal antibody (Applied Biosystems, Inc. #13-145-100) and the secondary antibody is goat anti-mouse IgG linked to β-galactosidase. Thus the extent of viral replication is determined by assessing β-galactosidase activity by quantifying the generation of the 4-methyl umbelliferone fluorescent cleavage product after addition of the methyl umbelliferyl-β-D-galactoside (Sigma #M1633) substrate on a microfluorimeter (365 nm for excitation and 450 nm for emission). Antiviral activity (IC50) of the test compound is determined by comparing the flourescence obtained in absence of compound to that obtained in the presence of compound.

Turning to `COc1ccc(C(C)NC(=S)Nc2ccc(NC(=O)c3ccccc3F)cc2)cc1Cl` (stereo not drawn) [Example 1000, N-(4-{3-[1-(3-Chloro-4-methoxy-phenyl)-ethyl]-thioureido}-phenyl)-2-fluoro-benzamide], the IC50 was greater than 10 µg/mL with HSV-1 and 6 µg/mL (≈ 13.1 µM) in the assay with VZV strain Ellen.
For the molecule `COc1cc(OC)c(NC(=S)Nc2ccc(NC(=O)c3ccccc3F)cc2)cc1Br` [Example 827, N-{4-[3-(5-Bromo-2,4-dimethoxy-phenyl)-thioureido]-phenyl}-2-fluoro-benzamide], the IC50 with HSV-1 was determined as 0.2 µg/mL (≈ 0.397 µM). For the same molecule, in the assay on VZV strain Ellen, the inhibition at 10 µg/mL was 70% and the IC50 was found to be 3.5 µg/mL (≈ 6.94 µM).
Consider `COc1ccc(C(=O)Nc2ccc(NC(=S)Nc3cc(Cl)c(OC)c(Cl)c3)cc2)cc1` [Example 880, N-{4-[3-(3,5-Dichloro-4-methoxy-phenyl)-thioureido]-phenyl}-4-methoxy-benzamide], for which the IC50 in the assay with HSV-1 was greater than 10 µg/mL. In addition, in the assay with VZV strain Ellen, the inhibition at 10 µg/mL worked out at 30% and the IC50 is greater than 10 µg/mL.
`CC(NC(=S)Nc1ccc(NC(=O)c2cc3ccccc3cn2)cc1)c1ccc(Br)cc1` (stereo not drawn) [Example 987, Isoquinoline-3-carboxylic acid (4-{3-[1-(4-bromo-phenyl)-ethyl]-thioureido}-phenyl)-amide]: the results for the IC50 in the assay on HSV-1 and in the assay on VZV strain Ellen were 3 µg/mL (≈ 5.94 µM) and 0.046 µg/mL (≈ 0.091 µM), respectively.
For `CC(NC(=S)Nc1ccc(NC(=O)c2nccc3ccccc23)cc1)c1ccc(Br)cc1` (stereo not drawn) [Example 978, Isoquinoline-1-carboxylic acid (4-{3-[1-(4-bromo-phenyl)ethyl]-thioureido}-phenyl)-amide] the same measures were greater than 10 µg/mL and 0.04 µg/mL (≈ 0.0791 µM).
Consider `Cc1nc2cc(NC(=S)Nc3ccc(NC(=O)c4ccccc4F)cc3)ccc2[nH]1` [Example 497], for which the “IC50 (ug/ml) HSV” value in the assay with HSV-1 is greater than 10 µg/mL. In the assay on VZV strain Ellen, the “IC50 (ug/ml) VZV” value is greater than 10 µg/mL and the “% inhibition 10 ug/ml VZV” value amounted to 10%.
As to `C[C@H](NC(=S)Nc1ccc(NC(=O)c2ccccc2F)cc1)c1ccc(Br)cc1` [Example 1004, (S)-N-(4-{3-[1-(4-Bromo-phenyl)-ethyl]-thioureido}-phenyl)-2-fluoro-benzamide], the IC50 in the assay on HSV-1 was greater than 10 µg/mL; in the assay on VZV strain Ellen, 0.06 µg/mL (≈ 0.127 µM).
On to `Cc1ccc([C@@H](C)NC(=S)Nc2ccc(NC(=O)c3ccccc3F)cc2)cc1` [Example 1012, 2-Fluoro-N-{4-[3-((1R)-1-p-tolyl-ethyl)-thioureido]-phenyl}-benzamide], for which the IC50 with HSV-1 was greater than 10 µg/mL; in the assay on VZV strain Ellen, greater than 7.5 µg/mL.
As to `Cc1cccc(NC(=S)Nc2ccc(NC(=O)c3ccccc3F)cc2)c1` [Example 432], in the assay with HSV-1, the “IC50 (ug/ml) HSV” value came to 1.6 µg/mL (≈ 4.22 µM). In addition, in the assay on VZV strain Ellen, the “IC50 (ug/ml) VZV” value is greater than 10 µg/mL and the “% inhibition 10 ug/ml VZV” value stood at 0%.
Take `C[C@@H](NC(=S)Nc1ccc(NC(=O)c2ccccc2F)cc1)c1ccc(Cl)cc1` [Example 1014, N-(4-{3-[(1R)-1-(4-Chloro-phenyl)-ethyl]-thioureido}-phenyl)-2-fluoro-benzamide]: the IC50 in the assay with HSV-1 is greater than 10 µg/mL; in the assay on VZV strain Ellen, greater than 7.5 µg/mL.
Turning to `COc1cc(OC)c(NC(=S)Nc2ccc(NC(=O)c3ccc4ccccc4c3)cc2)cc1Cl` [Example 156], the “IC50 (ug/ml) HSV” value in the assay with HSV-1 was determined as 2 µg/mL (≈ 4.07 µM). In the assay with VZV strain Ellen, the “IC50 (ug/ml) VZV” value was greater than 10 µg/mL and the “% inhibition 10 ug/ml VZV” value worked out at 17%.
Take `CN(c1ccc(NC(=S)Nc2ccc(NC(=O)c3ccccc3F)cc2)cc1Cl)C1CCN(Cc2ccccc2)C1` (stereo not drawn) [Example 857, N-[4-(3-{4-[(1-Benzyl-pyrrolidin-3-yl)-methyl-amino]-3-chloro-phenyl}-thioureido)-phenyl]-2-fluoro-benzamide]: the IC50 in the assay on HSV-1 was 2 µg/mL (≈ 3.4 µM). Besides, in the assay on VZV strain Ellen, the inhibition at 10 µg/mL came to 80% and the IC50 stood at 7 µg/mL (≈ 11.9 µM).
With `COc1cc(OC)c(NC(=S)Nc2ccc(NC(=O)c3cccc(N(C)C)c3)cc2)cc1Cl` [Example 136], the “IC50 (ug/ml) HSV” value in the assay with HSV-1 is 1 µg/mL (≈ 2.06 µM). Also, in the assay on VZV strain Ellen, the “IC50 (ug/ml) VZV” value was greater than 10 µg/mL and the “% inhibition 10 ug/ml VZV” value is 40%.
For `CC(NC(=S)Nc1ccc(NC(=O)c2ccc(C#N)cc2)cc1)c1ccc(F)cc1` (stereo not drawn) [Example 1022, 4-Cyano-N-(4-{3-[1-(4-fluoro-phenyl)-ethyl]-thioureido}-phenyl)-benzamide], the results for the IC50 in the assay with HSV-1 and in the assay on VZV strain Ellen were greater than 10 µg/mL and 1.5 µg/mL (≈ 3.58 µM), respectively.
`COc1ccc(NC(=S)Nc2ccc(NC(=O)c3ccccc3)cc2)cc1Cl` [Example 817, N-{4-[3-(3-Chloro-4-methoxy-phenyl)-thioureido]-phenyl}-benzamide]: the IC50 in the assay on HSV-1 came out at 1 µg/mL (≈ 2.43 µM). In addition, in the assay with VZV strain Ellen, the inhibition at 10 µg/mL turned out to be 66% and the IC50 turned out to be 12 µg/mL (≈ 29.1 µM).
Take `O=C(Nc1ccc(NC(=S)Nc2ccccc2Cl)cc1)c1ccccc1F` [Example 948, N-{4-[3-(2-Chloro-phenyl)-thioureido]-phenyl}-2-fluoro-benzamide]: the values for the IC50 in the assay with HSV-1 and in the assay on VZV strain Ellen were 6 µg/mL (≈ 15 µM) and greater than 10 µg/mL, respectively. Also, the inhibition at 10 µg/mL in the assay on VZV strain Ellen came to 4%.
With `C[C@H](NC(=S)Nc1ccc(NC(=O)c2ccccc2F)cc1)c1ccc(Cl)cc1` [Example 1015, N-(4-{3-[(1S)-1-(4-Chloro-phenyl)-ethyl]-thioureido}-phenyl)-2-fluorobenzamide], the results for the IC50 with HSV-1 and in the assay on VZV strain Ellen were greater than 10 µg/mL and 0.03 µg/mL (≈ 0.0701 µM), respectively.
On to `CC(NC(=S)Nc1ccc(NC(=O)c2nccc3ccccc23)cc1)c1ccc(C#N)cc1` (stereo not drawn) [Example 979, Isoquinoline-1-carboxylic acid (4-{3-[1-(4-cyano-phenyl)-ethyl]-thioureido}-phenyl)-amide], for which the IC50 in the assay with HSV-1 was greater than 10 µg/mL; in the assay with VZV strain Ellen it was 0.13 µg/mL (≈ 0.288 µM).
For the molecule `CC(NC(=S)Nc1ccc(NC(=O)c2ccccc2F)cc1)c1ccc(C(F)(F)F)cc1` (stereo not drawn) [Example 787], the values for the IC50 in the assay with HSV-1 and in the assay with VZV strain Ellen were greater than 10 µg/mL and greater than 7.5 µg/mL, respectively.
For `CC(NC(=S)Nc1ccc(NC(=O)c2ccccc2F)cc1)c1cccc(C(F)(F)F)c1` (stereo not drawn) [Example 786] the same measures were greater than 10 µg/mL and greater than 7.5 µg/mL.
Turning to `COc1cccc(NC(=S)Nc2ccc(NC(=O)c3ccccc3F)cc2)c1` [Example 487], the “IC50 (ug/ml) HSV” value in the assay on HSV-1 was found to be 4 µg/mL (≈ 10.1 µM). In addition, in the assay on VZV strain Ellen, the “IC50 (ug/ml) VZV” value was greater than 10 µg/mL and the “% inhibition 10 ug/ml VZV” value was determined as 48%.
For `CC(NC(=S)Nc1ccc(NC(=O)c2cc3ccccc3cn2)cc1)c1ccc(C#N)cc1` (stereo not drawn) [Example 986, Isoquinoline-3-carboxylic acid (4-{3-[1-(4-cyano-phenyl)-ethyl]-thioureido}-phenyl)-amide], the IC50 is greater than 10 µg/mL in the assay on HSV-1 and 0.05 µg/mL (≈ 0.111 µM) in the assay with VZV strain Ellen.
Turning to `COc1cc(OC)c(NC(=S)Nc2ccc(NC(=O)c3ccccc3CO)cc2)cc1Cl` [Example 185], the “IC50 (ug/ml) HSV” value in the assay on HSV-1 amounted to 3 µg/mL (≈ 6.36 µM). Moreover, in the assay with VZV strain Ellen, the “IC50 (ug/ml) VZV” value is greater than 10 µg/mL and the “% inhibition 10 ug/ml VZV” value is reported as 32%.
The matching figures for `O=C(Nc1ccc(NC(=S)Nc2ccc3[nH]cnc3c2)cc1)c1ccccc1F` [Example 496]: greater than 10 µg/mL, greater than 10 µg/mL and 25%.
`CC(NC(=S)Nc1ccc(NC(=O)c2cccc(C#N)c2)cc1)c1ccc(F)cc1` (stereo not drawn) [Example 1020, 3-Cyano-N-(4-{3-[1-(4-fluoro-phenyl)-ethyl]-thioureido}-phenyl)-benzamide]: the IC50 is greater than 10 µg/mL with HSV-1 and 6.3 µg/mL (≈ 15.1 µM) in the assay with VZV strain Ellen.
For `CC(NC(=S)Nc1ccc(NC(=O)c2ccccc2F)cc1)c1cccc(C#N)c1` (stereo not drawn) [Example 791] the same measures were greater than 10 µg/mL and 7 µg/mL (≈ 16.7 µM).
Regarding `C[C@H](NC(=S)Nc1ccc(NC(=O)c2ccccc2F)cc1)c1ccccc1` [Example 1013, 2-Fluoro-N-{4-[3-((1S)-1-phenyl-ethyl)-thioureido]-phenyl}-benzamide], the IC50 in the assay on HSV-1 was greater than 10 µg/mL; in the assay on VZV strain Ellen it was 0.27 µg/mL (≈ 0.686 µM).
`CN(C)c1ccc(NC(=S)Nc2ccc(NC(=O)c3ccccc3F)cc2)cc1Cl` [Example 852, N-{4-[3-(3-Chloro-4-dimethylamino-phenyl)-thioureido]-phenyl}-2-fluoro-benzamide]: the IC50 in the assay on HSV-1 amounted to 4 µg/mL (≈ 9.03 µM). Also, in the assay on VZV strain Ellen, the inhibition at 10 µg/mL was determined as 80% and the IC50 was found to be 6.5 µg/mL (≈ 14.7 µM).
In the case of `CSc1ccc(NC(=S)Nc2ccc(NC(=O)c3ccccc3F)cc2)cc1Cl` [Example 847, N-{4-[3-(3-Chloro-4-methylsulfanyl-phenyl)-thioureido]-phenyl}-2-fluoro-benzamide], in the assay on HSV-1, the IC50 was 0.4 µg/mL (≈ 0.897 µM). In the assay with VZV strain Ellen, the inhibition at 10 µg/mL was found to be 65% and the IC50 was greater than 10 µg/mL.
